Reference: patent US6518262B1, “22R-hydroxycholesta-8, 14-diene derivatives for the inhibition of meiosis” (Akzo Nobel N.V., priority 1999, dated 2003)

System: denuded oocytes (DO)
Test: Oocyte assay, antagonistic testing, inhibition of FF-Mas induced maturation in denuded oocytes (DO assay)
Assay type: cell-based, mice (B6D2-F1, strain C57BL×DBA)
Details: FF-Mas 5 μM, compound tested 5 μM, control (FF-Mas alone) in brackets
Method: The meiosis inhibiting activity of the 22R-hydroxycholesta-8,14-diene derivatives of the invention is measured in an in vitro oocyte assay as the ability to inhibit the FF-Mas or 22S-hydroxy-FF-Mas induced maturation, in hypoxanthine media, in denuded oocytes (DO) or cumulus enclosed oocytes (CEO), respectively. Natural resumption of meiosis can be mimicked in vitro by addition of FF-Mas or other agonists to the culture medium containing hypoxanthine. The antagonistic activity of the compounds is measured as the ability to inhibit the FF-Mas or 22S-hydroxy-FF-Mas induced oocyte maturation in denuded oocytes or cumulus enclosed oocytes, respectively, in vitro. Ovaries are obtained from immature female mice (B6D2-F1, strain C57BL×DBA). At the age of 19, 20 or 21 days the mice are injected subcutaneously with a single dose of 20 IU follicle stimulating hormone (Humegon, Organon, The Netherlands) in saline. Forty-eight hours after follicle stimulating hormone injection mice are killed by cervical dislocation. The ovaries are removed, freed of extraneous tissue and placed in a multidish containing 0.5 ml preparation medium at 37° C. L-15 Leibovitz medium (Gibco, pH 7.3±0.1) supplemented with bovine serum albumin (3 mg·ml^−1), L-glutamine (0.23 mM), sodium pyruvate (2 mM) and hypoxanthine (4 mM) is used as preparation medium. The antral follicles of the ovaries are punctured under a dissecting microscope using two 27-gauge needles attached to two 1 ml syringes. […] At t=0 the number of oocytes with intact germinal vesicles (GV) or germinal vesicle break-down (GVBD) is counted under an inverted microscope with differential interference contrast equipment. […] At the end of the culture period the number of oocytes with GV or GVBD per group is counted. For statistical analysis the percentage germinal vesicle breakdown is calculated for each group in one block. These percentages are subjected to arcsin transformation, and differences between control and test compounds are analyzed by an ANOVA test for a randomized block design. […]

Compound | % GVBD DO assay exp.
CC(C)=CC[C@@H](O)[C@@H](C)[C@H]1CC=C2C3=C(CC[C@@]21C)[C@@]1(C)CC[C@H](O)C(C)(C)[C@@H]1CC3 [Example 2, (3β,5α,20S,22R)-4,4-Dimethylcholesta-8,14,24-triene-3,22-diol] | 0(90) %
CC(C)CC[C@@H](O)[C@@H](C)[C@H]1CC=C2C3=C(CC[C@@]21C)[C@@]1(C)CC[C@H](O)C(C)(C)[C@@H]1CC3 [Example 1, (3β,5α,20S,22R)-4,4-Dimethylcholesta-8,14-diene-3,22-diol] | 0(55) %
